Assay results taken from patent US7291611B2, “Benzimidazolidinone derivatives as muscarinic agents” (ACADIA Pharmaceuticals Inc., priority 2001, dated 2007).

Columns and labels:
M1 muscarinic receptor = biological target: T1, M1 muscarinic receptor (Homo sapiens, UniProt P11229); assay: R-SAT functional assay, muscarinic M1 receptor; format: cell-based; conditions: for Emax: NIH3T3, relative to maximum response to carbachol, read-out: M1 % Efficacy; for Emax / EC50: R-SAT, transfected NIH-3T3 cells; for EC50: read-out: M1 pEC50 (converted)
T1 construct: expressed in transfected cells; host or cells: NIH-3T3 cells (ATCC CRL 1658)
T1 sequence (P11229 1-460): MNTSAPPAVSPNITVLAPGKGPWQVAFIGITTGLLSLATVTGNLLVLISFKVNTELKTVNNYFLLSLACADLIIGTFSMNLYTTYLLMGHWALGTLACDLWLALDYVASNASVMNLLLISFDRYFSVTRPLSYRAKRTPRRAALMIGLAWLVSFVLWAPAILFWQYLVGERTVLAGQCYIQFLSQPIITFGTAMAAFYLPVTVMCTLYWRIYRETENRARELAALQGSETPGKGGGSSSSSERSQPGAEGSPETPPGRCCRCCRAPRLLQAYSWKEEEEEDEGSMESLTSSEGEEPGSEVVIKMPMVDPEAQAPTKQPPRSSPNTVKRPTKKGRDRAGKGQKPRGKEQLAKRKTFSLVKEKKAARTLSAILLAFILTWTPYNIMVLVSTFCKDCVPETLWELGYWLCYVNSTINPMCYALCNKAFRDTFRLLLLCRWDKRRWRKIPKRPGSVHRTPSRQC
Method: (§1) The M1 and M4 muscarinic receptor subtypes were cloned substantially as described by Bonner et al., (1987) Science […] p. 527 and Bonner et al, (1988) Neuron 1, p. 403. R-SAT assays were carried out substantially as described in U.S. Pat. No. 5,707,798 and by Braüner-Osbome, H. B. and Brann, M. R. (1995), Eur. J. Pharmacol. 295:93-102. NIH-3T3 cells (available from the American Type Culture Collection as ATCC CRL 1658) were transfected with plasmid DNA encoding the m1 and m4 receptors and plasmid DNA encoding β-galactosidase. Transfected cells were grown in the presence of between 1 nM and 40 μM of the test compound for 5 days. On day 5, the cells were lysed using 0.5% nonidet-P and β-galactosidase expression was quantified using the chromogenic substrate o-nitrophenyl-p-D-galactoside (ONGP).
(§2) Data were normalized relative to the maximum response of the cells to the muscarinic agonist carbachol, and the following equation was fitted to the data: response=minimum+(maximum−minimum)/(1+([ligand]/EC50)) % Efficacy was defined as (maximum−minimum)/(maximum response of cells to carbachol). pEC50=−log (EC50). Where data gave a bell-shaped curve, “maximum” was defined as the highest observed response.

[1] = biological target: T2, human dopamine D2 receptor (Homo sapiens, UniProt P14416); assay: [3H]-Spiperone radioligand binding to D2 receptor membranes; conditions: tSA cell membranes, 150 pM [3H]-Spiperone; read-out: D2 [3H]Spiperone pIC50 (converted)
T2 construct: expressed in transfected cells; host or cells: tSA cells
T2 sequence (P14416 1-414 isoform P14416-2): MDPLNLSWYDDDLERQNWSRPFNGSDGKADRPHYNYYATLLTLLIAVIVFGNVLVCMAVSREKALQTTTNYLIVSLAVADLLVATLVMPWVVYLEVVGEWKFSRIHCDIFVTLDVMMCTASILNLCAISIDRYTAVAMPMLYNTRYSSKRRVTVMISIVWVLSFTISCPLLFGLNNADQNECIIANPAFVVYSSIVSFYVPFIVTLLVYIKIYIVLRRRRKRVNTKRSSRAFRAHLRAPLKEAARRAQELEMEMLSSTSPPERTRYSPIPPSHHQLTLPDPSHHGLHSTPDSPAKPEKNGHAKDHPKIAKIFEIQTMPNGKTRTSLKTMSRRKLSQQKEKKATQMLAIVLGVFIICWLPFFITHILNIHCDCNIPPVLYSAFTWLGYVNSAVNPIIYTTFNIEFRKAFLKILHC
Method: The D2 dopamine receptor subtype was cloned substantially as described by Stormann, Gdula, Weiner and Brann, 1990 [Mol Pharmacol 37, 1-6]. Cell membranes expressing the D2 receptor were prepared by transfecting tSA cells (Chahine, M., Bennet, P. B., George, A. L., Horn, R. (1994) Pfluegers Arch. 427, 136-142) with 10 μg plasmid DNA encoding the human dopamine D2 receptor and 40 μl Superfect (Qiagen). The cells were harvested 48 hours and transfection and membranes were prepared by homogenizing the cells using a Polytron harvester in 20 mM Hepes, 10 mM EDTA, pH 7.4. The homogenate was centrifuged for 30 minutes at 37,000 g. The pellet was homogenized again in 60 ml 20 mM Hepes, 5 mM EDTA. The homogenate was centrifuged for 30 minutes at 37,000 g. The supernatant was discarded. The pellet was homogenized again in 10 ml 20 mM Hepes, 1 mM EDTA. The resultant membranes were frozen at −80° C.
The membranes were combined with 150 pM [^3H]-Spiperone (Amersham-Pharmacia, 107 Ci/mmol) and ligand concentrations between 1 nM and 10 μM, or haloperidol concentrations between 0.1 nM and 1 μM in 460 μl 20 mM Hepes, 1 mM EDTA, 0.1% (w/v) bovine serum albumin. Nonspecific binding was defined as binding in the presence of 1 μM haloperidol. The membranes were incubated for 4 hours at 37° C., and then filtered onto Packard GFB Filterplates using a Packard harvester. The membranes were dried and 50 μl Microscint (Packard) was added to each well. The amount of bound radioligand was quantified using a Packard Topcount scintillation counter.
Data were normalized relative to the maximum inhibition of [^3H]-Spiperone binding by 1 μM haloperidol, and the following equation was fitted to the data: % inhibition=minimum+(maximum−minimum)/(1+([ligand]/[IC50])) % inhibition was defined as (maximum−minimum)/(maximum response of cells to haloperidol). pIC50=−log (IC50). NT=not tested. Results

M4 muscarinic receptor = biological target: T3, M4 muscarinic receptor (Homo sapiens, UniProt P08173); assay: R-SAT functional assay, muscarinic M4 receptor; format: cell-based; conditions: for Emax: NIH3T3, relative to maximum response to carbachol, read-out: M4 % Efficacy; for Emax / EC50: R-SAT, transfected NIH-3T3 cells; for EC50: read-out: M4 pEC50 (converted)
T3 construct: expressed in transfected cells; host or cells: NIH-3T3 cells (ATCC CRL 1658)
T3 sequence (P08173 1-479): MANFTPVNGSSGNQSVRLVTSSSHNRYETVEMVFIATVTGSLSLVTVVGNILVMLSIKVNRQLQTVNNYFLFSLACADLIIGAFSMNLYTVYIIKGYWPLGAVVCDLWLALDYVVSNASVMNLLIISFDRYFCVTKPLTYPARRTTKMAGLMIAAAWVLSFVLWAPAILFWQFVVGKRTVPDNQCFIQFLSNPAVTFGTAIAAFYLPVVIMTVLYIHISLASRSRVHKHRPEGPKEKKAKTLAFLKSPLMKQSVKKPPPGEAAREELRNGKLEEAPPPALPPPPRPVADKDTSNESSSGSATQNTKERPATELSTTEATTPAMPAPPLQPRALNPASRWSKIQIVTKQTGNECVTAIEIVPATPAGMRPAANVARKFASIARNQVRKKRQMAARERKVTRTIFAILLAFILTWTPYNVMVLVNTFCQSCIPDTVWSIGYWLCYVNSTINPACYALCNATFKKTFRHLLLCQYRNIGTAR
Method: as §1, §2

Row | SMILES | Emax (M1 muscarinic receptor) [%] | EC50 (M1 muscarinic receptor) [nM] | IC50 [1] [nM] | Emax (M4 muscarinic receptor) [%] | EC50 (M4 muscarinic receptor) [nM] | binding efficacy for the M1 receptor subtype (M1 muscarinic receptor) | binding efficacy for the M4 receptor subtype (M4 muscarinic receptor)
1 | CCCCC1CCN(CCCN2C(=O)Cc3ccccc32)CC1 [Compound 85LM12, 1-(3-(4-Butylpiperidin-1-yl)propyl)-1,3-dihydro-indol-2-one] | 78 | 126 | 398 | – | – | – | –
2 | CCCCC1CCN(CC(C)Cn2c(=O)sc3ccccc32)CC1 (centres unmarked) [Compound 85LM14, 3-(3-(4-Butyl-piperidin-1-yl)-2-methyl-propyl)-3H-benzothiazol-2-one] | 104 | 31.6 | 79.4 | 94 | 1580 | – | –
3 | CCCCC1CCN(CCCn2c(=O)oc3ccc(F)cc32)CC1 [Compound 86KK22-K, 3-[3-(4-butylpiperidin-1-yl)propyl]-5-fluoro-3H-benzooxazol-2-one] | 75 | 200 | 631 | 56 | 1260 | – | –
4 | CCCCC1CCN(CCCn2c(=O)oc3cc(F)ccc32)CC1 [Compound 97KK28, 3-[3-(4-butylpiperidin-1-yl)propyl]-6-fluoro-3H-benzooxazol-2-one] | 71 | 200 | 251 | – | – | – | –
5 | CCCCC1CCN(C[C@@H](C)Cn2c(=O)sc3ccccc32)CC1 [Compound 85LM91-78R, 3-(3-(4-Butylpiperidin-1-yl)-(R)-2-methylpropyl)-3H-benzothiazol-2-one] | 99 | 31.6 | 50.1 | 141 | 794 | – | –
6 | CCCOC1CCN(CCCn2c(=O)sc3ccccc32)CC1 [Compound 61KS70-1, 3-[3-(4-Propoxy-piperidin-1-yl)-propyl]-3H-benzothiazol-2-one] | 96 | 79.4 | 316 | 112 | 794 | – | –
7 | CCCCC1CCN(CCCn2c(=O)n(C)c3ccccc32)CC1 [Compound 45NK-110, 1-[3-(4-Butylpiperidin-1-yl)propyl]-3-methyl-1,3-dihydrobenzoimidazol-2-one] | 89 | 100 | 3160 | 61 | 1260 | high binding efficacy | high binding efficacy
8 | CCCCC=C1CCN(CCCn2c(=O)[nH]c3ccccc32)CC1 [Compound 61KS-13, 1-(3-[4-Pentylidenepiperidino]propyl)-1,3-dihydrobenzimidazole-2-one] | 106 | 39.8 | 398 | 100 | 39.8 | high binding efficacy | high binding efficacy
9 | CCCCC1CCN(CCCn2c(=O)oc3cccc(C)c32)CC1 [Compound 86KK25-a, 3-[3-(4-butylpiperidin-1-yl]propyl)-4-methyl-3H-benzooxazol-2-one] | 73 | 100 | 631 | 36 | – | – | –
10 | CCCCC1CC2CCC(C1)N2CCCn1c(=O)sc2ccccc21 (centres unmarked) [Compound 97KS96-2, 3-[3-(3-Butyl-8-aza-bicyclo[3.2.1]oct-8-yl)-propyl]-3H-benzothiazol-2-one] | 63 | 50.1 | 100 | 50 | – | – | –
11 | CCCOC1CCN(CC(C)Cn2c(=O)sc3ccccc32)CC1 (centres unmarked) [Compound 85LM49B, 3-(3-(4-Propoxy-piperidin-1-yl)-2-methyl-propyl)-3H-benzothiazol-2-one] | 98 | 25.1 | – | – | – | – | –
12 | CCCCC1CCN(CCCn2c(=O)sc3ccccc32)CC1 [Compound 62KK040d, 3-[3-(4-Butylpiperidin-1-yl)propyl]-3H-benzothiazol-2-one] | 83 | 25.1 | 79.4 | 93 | 398 | – | –
13 | CCCCCC1CC2CCC(C1)N2CCCn1c(=O)sc2ccccc21 (centres unmarked) [Compound 79KS97, 3-[3-(3-Pentyl-8-aza-bicyclo[3.2.1]oct-8-yl)-propyl]-3H-benzothiazol-2-one] | 70 | 6.31 | 100 | – | – | – | –
14 | CCCCC1CCN(CCCn2c(=O)oc3ccc(C)cc32)CC1 [Compound 86KKM25-d, 3-[3-(4-butylpiperidin-1-yl)propyl]-5-methyl-3H-benzooxazol-2-one] | 84 | 100 | – | 63 | 794 | – | –
15 | CCCC=C1CCN(CCCn2c(=O)[nH]c3ccccc32)CC1 [Compound 61KS-12, 1-(3-[4-Butylidenepiperidino]propyl)-1,3-dihydrobenzimidazol-2-one] | 107 | 31.6 | 1000 | 164 | 79.4 | high binding efficacy | high binding efficacy
16 | CCCCCC1CCN(CCCn2c(=O)[nH]c3ccccc32)CC1 [Compound 45NK-71, 1-[3-(4-Pentylpiperidin-1-yl)propyl]-1,3-dihydrobenzoimidazol-2-one] | 71 | 100 | 398 | 49 | 251 | high binding efficacy | high binding efficacy
17 | CC(C)CC=C1CCN(CCCn2c(=O)[nH]c3ccccc32)CC1 [Compound 45NK-70, 1-{3-[4-(3-Methylbutylidene)piperidin-1-yl]propyl}-1,3-dihydrobenzoimidazol-2-one] | 70 | 50.1 | 631 | 40 | 79.4 | high binding efficacy | high binding efficacy
